These results are taken from patent US10676721B2, “Bacteriophages expressing antimicrobial peptides and uses thereof” (priority 2009, dated 2020).

Peptide text beside a SMILES is read from it.

Data set [1] is described as follows: Toxicity of AMPs (Table 3, method not described). Set-up: unit not given here. The following applies: two values per AMP.
The test system of data set [2] is Staph aureus. The data set can be described thus: Staph aureus growth in sterile media isolated 6 hours after M13 infection of EMG2 (FIG. 30). The format is cell-based, Staphylococcus aureus. To be noted: no phage control 1.6. Here is the method:
The inventors isolated the media in which the antimicrobial agents were released. The inventors next infected a growing mid-log culture of EMG2 with the different wild-type and engineered M13 phage. At 6 hours post infection, the EMG2 cells were centrifuged at 13,000 g and filtered through a 0.2 um membrane to collect sterile media with the released AmP and enzyme. The media was replenished in nutrients by adding 5× concentrated LB solution. Mid-log Staph bacteria where then inoculated in the media at a concentration of 10^5 CFU/ml.
For example, the “no phage” or the “m13 mp 18” staph culture reach an OD of 0.8 within 4 hours whereas the “M13.pTRC.Omp.PonW3” media containing PonW3 (SEQ ID NO: 40) causes a growth delay by another 4 hours, the culture reaches the same OD of 0.8 only after 8 hours of growth. Finally, release of CHAP165 in the surrounding media due to phage reengineering limited staph growth to an OD level of 0.8 while compared to 1.6 for the no phage control and 1.2 for the wild M13mp18.

The subject of data set [3] is E. coli strain that expresses capsular polysaccharide K. The data set can be described thus: Mixed culture of E. coli host strain and E. coli strain expressing capsular polysaccharide K. The format is cell-based, Escherichia coli. The text has this: The expression of the genomic payload of lytic peptides and proteins increases the utility of the engineered bacteriophage to treat heterologous infections.

The test system of data set [4] is S. aureus. To be noted: CHAP165, from ROSS 2009; cited from earlier work.
Data set [5] relates to Staphylococcus aureus. The data set is described as follows: Co-culture of E. coli with Staphylococcus aureus. The format is cell-based.
For data set [6], the system named is antibiotic-resistant staphylococci. To be noted: cited from earlier work.

Molecule `CC[C@H](C)[C@H](NC(=O)[C@H](CCCCN)NC(=O)[C@H](CCCCN)NC(=O)[C@H](Cc1ccccc1)NC(=O)[C@H](CC(C)C)NC(=O)[C@H](CCCCN)NC(=O)[C@H](Cc1c[nH]c2ccccc12)NC(=O)[C@@H](N)CCCCN)C(=O)N[C@@H](CC(C)C)C(=O)N[C@@H](CCCCN)C(=O)N[C@@H](Cc1ccccc1)C(=O)N[C@@H](CC(C)C)C(=O)N[C@@H](Cc1c[nH]cn1)C(=O)N[C@@H](CC(C)C)C(=O)N[C@@H](C)C(=O)N[C@@H](CCCCN)C(=O)N[C@@H](CCCCN)C(=O)N[C@@H](Cc1ccccc1)C(=O)O` [J6084_F10] (H-KWKLFKKILKFLHLAKKF-OH) showed a Toxicity in data set [1] of 32.
With `CC[C@H](C)[C@H](NC(=O)[C@H](CC(C)C)NC(=O)[C@H](C)NC(=O)CNC(=O)[C@H](Cc1c[nH]c2ccccc12)NC(=O)[C@@H](N)Cc1ccccc1)C(=O)N[C@@H](CCCCN)C(=O)NCC(=O)N[C@@H](C)C(=O)N[C@@H](C)C(=O)N[C@@H](CCCCN)C(=O)N[C@@H](CC(C)C)C(=O)N[C@H](C(=O)N1CCC[C@H]1C(=O)N[C@@H](CO)C(=O)N[C@H](C(=O)N[C@H](C(=O)NCC(=O)N[C@@H](CC(C)C)C(=O)N[C@@H](Cc1ccccc1)C(=O)N[C@@H](CCCCN)C(=O)N[C@@H](CCCCN)C(=O)N[C@@H](CCCCN)C(=O)N[C@@H](CCC(N)=O)C(=O)O)C(C)C)C(C)C)[C@@H](C)CC` [J6084_H2, Ponericin W5] (H-FWGALIKGAAKLIPSVVGLFKKKQ-OH), the Toxicity in data set [1] is reported as 32.
In data set [1], `CC[C@H](C)[C@H](NC(=O)CN)C(=O)N[C@@H](Cc1c[nH]c2ccccc12)C(=O)NCC(=O)N[C@H](C(=O)N[C@@H](CC(C)C)C(=O)N[C@@H](C)C(=O)N[C@@H](CCCCN)C(=O)N[C@H](C(=O)NCC(=O)N[C@H](C(=O)N[C@@H](CCCCN)C(=O)N[C@@H](C)C(=O)N[C@H](C(=O)N1CCC[C@H]1C(=O)N[C@@H](CCCNC(=N)N)C(=O)N[C@H](C(=O)N[C@H](C(=O)N[C@@H](CO)C(=O)N[C@@H](CCSC)C(=O)N[C@@H](CC(C)C)C(=O)N[C@@H](CCCCN)C(=O)N[C@@H](CCCCN)C(=O)N[C@@H](CCCCN)C(=O)N[C@@H](CCCCN)C(=O)N[C@@H](CCC(N)=O)C(=O)O)[C@@H](C)CC)C(C)C)C(C)C)[C@@H](C)CC)[C@@H](C)CC)[C@@H](C)O` [J589_K4, Ponericin W3] (H-GIWGTLAKIGIKAVPRVISMLKKKKQ-OH) returned a Toxicity of 64.
Still for that read-out and setting: as for `CC[C@H](C)[C@H](NC(=O)[C@H](CCCCN)NC(=O)[C@H](CC(C)C)NC(=O)[C@H](C)NC(=O)[C@H](CO)NC(=O)CNC(=O)[C@H](CC(C)C)NC(=O)[C@@H](N)Cc1c[nH]c2ccccc12)C(=O)NCC(=O)N[C@@H](C)C(=O)N[C@@H](CCCCN)C(=O)N[C@@H](CC(C)C)C(=O)N[C@@H](CC(C)C)C(=O)N1CCC[C@H]1C(=O)N[C@@H](CO)C(=O)N[C@H](C(=O)N[C@H](C(=O)NCC(=O)N[C@@H](CC(C)C)C(=O)N[C@@H](Cc1ccccc1)C(=O)N[C@@H](CCC(N)=O)C(=O)N[C@@H](CCCCN)C(=O)N[C@@H](CCCCN)C(=O)N[C@@H](CCCCN)C(=O)N[C@@H](CCCCN)C(=O)O)C(C)C)C(C)C` [J589_J5] (H-WLGSALKIGAKLLPSVVGLFQKKKK-OH), the figure is 32; as for `CC[C@H](C)[C@H](NC(=O)[C@H](C)NC(=O)[C@@H]1CCCN1C(=O)CNC(=O)[C@H](C)NC(=O)[C@H](CCCCN)NC(=O)[C@@H](NC(=O)[C@H](CC(C)C)NC(=O)CNC(=O)[C@H](CC(=O)O)NC(=O)[C@H](CCCNC(=N)N)NC(=O)[C@@H](NC(=O)[C@H](CC(N)=O)NC(=O)[C@H](CCC(N)=O)NC(=O)CNC(=O)[C@@H](NC(=O)[C@H](CCCNC(=N)N)NC(=O)[C@H](CCC(=O)O)NC(=O)[C@@H](NC(=O)[C@H](CCCCN)NC(=O)[C@H](CCCCN)NC(=O)[C@H](Cc1ccccc1)NC(=O)[C@H](Cc1ccccc1)NC(=O)[C@H](CCCCN)NC(=O)[C@H](Cc1c[nH]c2ccccc12)NC(=O)[C@@H](N)CCCNC(=N)N)[C@@H](C)CC)C(C)C)C(C)C)[C@@H](C)CC)C(=O)N[C@@H](CCC(N)=O)C(=O)N[C@H](C(=O)N[C@@H](CC(C)C)C(=O)NCC(=O)N[C@@H](C)C(=O)N[C@@H](C)C(=O)N[C@@H](CCCCN)C(=O)N[C@@H](C)C(=O)N[C@@H](CC(C)C)C(=O)O)C(C)C` [J6090_C11] (H-RWKFFKKIERVGQNVRDGLIKAGPAIQVLGAAKAL-OH), 256; as for `CC[C@H](C)[C@H](NC(=O)[C@H](C)NC(=O)[C@H](CCCCN)NC(=O)CNC(=O)[C@H](C)NC(=O)[C@H](Cc1c[nH]cn1)NC(=O)[C@@H](NC(=O)[C@H](C)NC(=O)CNC(=O)[C@H](CCCCN)NC(=O)[C@@H](NC(=O)[C@H](CC(C)C)NC(=O)[C@H](Cc1c[nH]c2ccccc12)NC(=O)CNC(=O)[C@H](Cc1ccccc1)NC(=O)[C@@H](N)Cc1ccccc1)[C@@H](C)CC)[C@@H](C)CC)C(=O)N[C@@H](Cc1c[nH]cn1)C(=O)NCC(=O)N[C@@H](CC(C)C)C(=O)N[C@H](C(=O)N[C@@H](Cc1c[nH]cn1)C(=O)N[C@@H](CCCNC(=N)N)C(=O)N[C@@H](CCCNC(=N)N)C(=O)N[C@@H](CCCNC(=N)N)C(=O)N[C@@H](Cc1c[nH]cn1)C(=O)O)[C@@H](C)CC` [J589_J6] (H-FFGWLIKGAIHAGKAIHGLIHRRRH-OH), 16.
Still for that read-out and setting: as for `CC[C@H](C)[C@H](NC(=O)CNC(=O)[C@H](CCCNC(=N)N)NC(=O)[C@H](Cc1ccccc1)NC(=O)[C@@H](NC(=O)[C@H](Cc1c[nH]cn1)NC(=O)[C@H](Cc1c[nH]cn1)NC(=O)[C@H](Cc1ccccc1)NC(=O)[C@@H](N)Cc1ccccc1)[C@@H](C)CC)C(=O)N[C@H](C(=O)N[C@@H](Cc1c[nH]cn1)C(=O)N[C@H](C(=O)NCC(=O)N[C@@H](CCCCN)C(=O)N[C@H](C(=O)N[C@H](C(=O)N[C@@H](Cc1c[nH]cn1)C(=O)N[C@@H](CCCCN)C(=O)N[C@@H](CC(C)C)C(=O)N[C@H](C(=O)N[C@H](C(=O)NCC(=O)O)[C@@H](C)O)C(C)C)[C@@H](C)CC)[C@@H](C)O)C(C)C)C(C)C` [J589_H3] (H-FFHHIFRGIVHVGKTIHKLVTG-OH), the figure is 128; as for `CC(C)C[C@H](NC(=O)[C@H](CC(C)C)NC(=O)[C@H](Cc1ccccc1)NC(=O)[C@H](CC(C)C)NC(=O)[C@H](CC(C)C)NC(=O)[C@@H](N)CC(C)C)C(=O)N[C@@H](CCCCN)C(=O)N[C@@H](CCCCN)C(=O)N[C@@H](CCCNC(=N)N)C(=O)N[C@@H](CCCCN)C(=O)N[C@@H](CCCCN)C(=O)N[C@@H](CCCNC(=N)N)C(=O)N[C@@H](CCCCN)C(=O)N[C@@H](Cc1ccc(O)cc1)C(=O)O` [J589_D1] (H-LLLFLLKKRKKRKY-OH), 512; as for `CC[C@H](C)[C@H](NC(=O)[C@H](CCCCN)NC(=O)[C@H](CC(C)C)NC(=O)[C@H](C)NC(=O)[C@H](CO)NC(=O)CNC(=O)[C@H](CC(C)C)NC(=O)[C@@H](N)Cc1c[nH]c2ccccc12)C(=O)NCC(=O)N[C@@H](C)C(=O)N[C@@H](CCCCN)C(=O)N[C@@H](CC(C)C)C(=O)N[C@@H](CC(C)C)C(=O)N1CCC[C@H]1C(=O)N[C@@H](CO)C(=O)N[C@H](C(=O)N[C@H](C(=O)NCC(=O)N[C@@H](CC(C)C)C(=O)N[C@@H](Cc1ccccc1)C(=O)N[C@@H](CCCCN)C(=O)N[C@@H](CCCCN)C(=O)N[C@@H](CCCCN)C(=O)N[C@@H](CCCCN)C(=O)N[C@@H](CCC(N)=O)C(=O)O)C(C)C)C(C)C` [J6123_D7, Ponericin W1] (H-WLGSALKIGAKLLPSVVGLFKKKKQ-OH), 64.

B1: CHAP165 (protein)
chain: AKTQAEINKRLDAYAKGTVDSPYRVKKATSYDPSFGVMEAGAIDADGYYHAQCQDLITDYVLWLTDNKVRTWGNAKDQIKQSYGTGFKIHENKPSTVPKKGWIAVFTSGSYEQWGHIGIVYDGGNTSTFTILEQNWNGYANKKPTKRVDNYYGLTHFIEIPVKA
Consider B1, for which the “OD level to which staph growth is limited” value in data set [2] stood at 0.8. Further, the “sterilization of the heterogeneous E. coli culture” value in data set [3] is recorded as “sterilize the heterogeneous E. coli culture completely”. In data set [3] (lysK165 expressed from engineered bacteriophage), the “lysis of the E. coli strain that expresses capsular polysaccharide K” value was “able to lyse”. For the same molecule, the “MIC SA” value in data set [4] was about 0.3 µg/mL. Moreover, the “lysis of the staphylococcal population” value in data set [5] was “able to complete lyse”. The “lytic activity compared with the natural LysK enzyme” value in data set [6] was “twice stronger lytic activity”.
